Results: publication PMC7044277 (Nature Communications, 2020)
Several values for one entry are separate records, joined by “and”; a condition that tells them apart may be missing. Identical values can stand only once.

Columns and labels:
Type in all cases: cell-based
320 non-olfactory GPCRs [1] = target: T1, 320 non-olfactory GPCRs (Homo sapiens, UniProt P50052)
T1 construct: expressed in transfected cells; host or cells: HTLA cells

320 non-olfactory GPCRs [2] = target: T2, 320 non-olfactory GPCRs (Homo sapiens, UniProt Q16602)
T2 construct: expressed in transfected cells; host or cells: HTLA cells

320 non-olfactory GPCRs [3] = target: T3, 320 non-olfactory GPCRs (Homo sapiens, UniProt Q86SM5); details: receptor MRGPRG; replicate values, Fig_4g
T3 construct: expressed in transfected cells; host or cells: HTLA cells

320 non-olfactory GPCRs [4] = target: T4, 320 non-olfactory GPCRs (Homo sapiens, UniProt P49146); details: receptor NPY2R; replicate values, Fig_4g
T4 construct: expressed in transfected cells; host or cells: HTLA cells
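Wherever Fold of Basal is given: compound tested at 1 µM final concentration.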
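Wherever GPCRome agonism screen response is given: fold over basal response of each receptor without drug.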

T3 sequence (Q86SM5 whole entry): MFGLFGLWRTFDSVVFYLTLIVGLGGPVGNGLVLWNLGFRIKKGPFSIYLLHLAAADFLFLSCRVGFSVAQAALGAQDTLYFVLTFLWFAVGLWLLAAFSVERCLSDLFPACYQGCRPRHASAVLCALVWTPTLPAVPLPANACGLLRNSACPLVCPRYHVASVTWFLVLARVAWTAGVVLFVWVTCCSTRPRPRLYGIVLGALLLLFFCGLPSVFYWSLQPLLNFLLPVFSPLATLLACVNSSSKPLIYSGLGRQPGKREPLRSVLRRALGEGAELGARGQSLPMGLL
T2 sequence (Q16602 23-461): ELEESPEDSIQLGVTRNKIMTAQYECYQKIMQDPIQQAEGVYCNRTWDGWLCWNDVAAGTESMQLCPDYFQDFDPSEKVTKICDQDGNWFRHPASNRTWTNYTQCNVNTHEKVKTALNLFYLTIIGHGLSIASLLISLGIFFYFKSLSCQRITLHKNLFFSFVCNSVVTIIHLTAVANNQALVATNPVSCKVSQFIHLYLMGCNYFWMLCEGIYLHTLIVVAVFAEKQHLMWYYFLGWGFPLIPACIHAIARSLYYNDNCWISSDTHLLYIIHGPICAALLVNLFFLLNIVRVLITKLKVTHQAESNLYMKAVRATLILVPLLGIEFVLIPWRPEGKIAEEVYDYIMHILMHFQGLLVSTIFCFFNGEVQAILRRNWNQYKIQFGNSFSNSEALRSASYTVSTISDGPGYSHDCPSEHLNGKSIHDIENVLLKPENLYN
T1 sequence (P50052 whole entry): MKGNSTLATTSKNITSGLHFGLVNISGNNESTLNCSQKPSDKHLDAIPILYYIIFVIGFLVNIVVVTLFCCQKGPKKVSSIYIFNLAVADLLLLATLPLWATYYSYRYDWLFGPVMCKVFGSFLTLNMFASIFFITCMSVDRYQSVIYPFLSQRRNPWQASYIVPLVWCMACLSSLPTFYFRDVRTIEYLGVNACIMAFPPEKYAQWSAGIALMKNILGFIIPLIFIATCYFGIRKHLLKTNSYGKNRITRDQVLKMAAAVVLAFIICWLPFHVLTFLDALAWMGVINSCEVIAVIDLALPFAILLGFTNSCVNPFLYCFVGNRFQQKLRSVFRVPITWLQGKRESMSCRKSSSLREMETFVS
T4 sequence (P49146 whole entry): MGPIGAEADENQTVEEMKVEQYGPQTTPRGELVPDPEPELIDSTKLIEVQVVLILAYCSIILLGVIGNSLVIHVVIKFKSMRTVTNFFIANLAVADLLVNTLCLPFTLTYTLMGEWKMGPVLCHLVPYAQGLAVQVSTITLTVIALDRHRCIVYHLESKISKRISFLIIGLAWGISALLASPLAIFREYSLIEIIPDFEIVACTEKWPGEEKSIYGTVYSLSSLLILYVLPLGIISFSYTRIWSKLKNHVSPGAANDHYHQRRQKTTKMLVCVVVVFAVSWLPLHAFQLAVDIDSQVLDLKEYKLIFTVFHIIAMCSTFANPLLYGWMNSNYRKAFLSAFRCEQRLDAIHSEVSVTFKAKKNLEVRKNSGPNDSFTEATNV

Which “Fold of Basal” value (320 non-olfactory GPCRs [1]) does the source give for `CCOc1cccc2cc(C(C)NCC3(O)CCCCC3)oc12` (stereo not shown) [O4LE6] here?
The value was 1.003 and 1.182 and 1.322 and 1.107.

What about the “Fold of Basal” value (320 non-olfactory GPCRs [2]) of the same compound?
The value was 0.7801 and 0.8303 and 0.6573 and 0.7619.

And the “GPCRome agonism screen response” value (320 non-olfactory GPCRs [3])?
The value was 0.767 and 0.7489 and 0.544 and 0.824.

What about the “GPCRome agonism screen response” value (320 non-olfactory GPCRs [4]) of the same compound?
The value was 0.7835 and 0.8337 and 0.6188 and 0.7117.
